SMILES strings stand for the structures.

The target in one series is M2 receptor (Homo sapiens (Human), UniProt P08172). Briefly: M2 receptor affinity test (3H-NMS competition). Type of series: binding. Particulars: M2 receptor membrane protein, 0.2 nM 3H-NMS. On the procedure: M2 receptor is a G protein-coupled receptor. In this experiment, the activity of test compound against the M2 receptor in vitro was assayed by the competition of radioisotope labeled NMS and non-isotope labeled test compound for an M2 binding site.
Chain of M2 receptor (P08172 whole entry): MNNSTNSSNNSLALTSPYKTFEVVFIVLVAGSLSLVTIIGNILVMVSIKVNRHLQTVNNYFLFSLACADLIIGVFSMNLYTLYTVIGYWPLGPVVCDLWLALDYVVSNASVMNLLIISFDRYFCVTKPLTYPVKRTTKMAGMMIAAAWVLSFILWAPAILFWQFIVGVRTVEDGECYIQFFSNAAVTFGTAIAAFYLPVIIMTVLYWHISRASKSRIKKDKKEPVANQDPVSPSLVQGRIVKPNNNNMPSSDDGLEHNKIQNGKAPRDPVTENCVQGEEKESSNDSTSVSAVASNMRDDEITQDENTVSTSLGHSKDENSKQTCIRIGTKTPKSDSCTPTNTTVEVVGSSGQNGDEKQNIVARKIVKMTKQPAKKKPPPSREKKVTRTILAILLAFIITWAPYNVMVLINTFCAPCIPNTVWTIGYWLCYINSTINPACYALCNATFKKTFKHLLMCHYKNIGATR
The M2 receptor membrane protein was prepared at 100 μg/mL by Biology Department of WuXi AppTec, and compound was serially diluted in a 2.5-fold gradient in DMSO to obtain 10 concentrations. Radioisotope 3H-NMS was prepared at 0.2 nM in an assay buffer (10 mM HEPES, 1 mM MgCl2, pH 7.40). In formal testing, the experimental system comprising 1 μL of the test compound, 100 μL of M2 receptor membrane protein and 100 μL of radioisotope was shaken in a shaker at 300 RPM for 2 h at room temperature. A GF/C plate (Perkin Elmer, Cat No. 6055690) was prefoamed with 0.3% PEI, and the membrane proteins in the reaction solution were collected by filtration onto the GF/C plate. The signal values were read by a Perkin Elmer Microbeta2 instrument and the inhibition rate for each concentration point was shown as a percentage.

A short description of series [1]: Crystal stability under high humidity conditions, TGA after placement. Type of series: physicochemical. Particulars: 24 hours. How it is done: • Instrument model: TA Q5000/5500 Thermal Gravimetric Analyzer • Test method: Taking a sample (about 1 to 5 mg) and placing in a TGA aluminum dish for testing, and heating the sample from room temperature to 350° C. at a heating rate of 10° C./min under 10 mL/min N2 conditions.
The crystal form C of the compound of formula (I) was placed under different humidity conditions at room temperature and then tested by TGA to preliminarily evaluate its water content changes under different humidity conditions.

Series [2] can be described thus: Dynamic vapor sorption (DVS) test. Format: physicochemical. How it is done:
• Instrument model: SMS DVS Advantage Dynamic Vapor Sorption Analyzer • Test conditions: Taking a sample (10 to 15 mg) and placing in a DVS sample dish for testing. • Detailed DVS parameters are as follows: • Temperature: 25° C. • Equilibration: dm/dt=0.01%/min (Minimum: 10 min, Maximum: 180 min) • Drying: drying 120 min under 0% RH • RH (%) test gradient: 10% • RH (%) test gradient range: 0% to 90% to 0%.
At the same time, a DVS test was performed on the crystal form C of the compound of formula (I).

Series [3] can be described thus: Crystal stability under 94% RH, XRPD after placement. Type of series: physicochemical. The following applies: 94% RH at room temperature for 1 to 2 weeks. How it is done: • Instrument model: X' Pert3. • Method: taking a sample of about 10 to 20 mg for XRPD analysis. • Detailed XRPD parameters are as follows: • X-ray source: Cu, kα (Kα1=1.540598 Δ, Kα2=1.544426 Δ, Kα2/Kα1 intensity ratio: 0.5) • Tube voltage: 45 kV, tube current: 40 mA • Divergence slit: fixed ⅛° • First seller slit: 0.04 rad, Second soller slit: 0.04 rad • Receiving slit: none, Anti-scatter slit: 7.5 mm • Measurement time: 5 min • scan range: 3 to 40° • Step width angle: 0.0263° • Step length: 46.665 seconds • Rotation speed of sample plate: 60 rpm
The crystal form E of the compound of formula (I) was placed under 94% RH at room temperature for 1 to 2 weeks and then subjected to XRPD testing to evaluate its solid stability in the high humidity environment.

`CN(CCCn1nnc2cc(CNC[C@H](O)c3ccc(O)c4[nH]c(=O)ccc34)c3c(c21)CCC3)[C@H]1CC[C@H](OC(=O)C(O)(c2cccs2)c2cccs2)CC1` [listing 1 of 3 here]: the IC50 – broadly, the point on the concentration scale where inhibition reaches its midpoint – at M2 receptor stood at 0.062 nM.

For `CN(CCCn1nnc2cc(CNC[C@H](O)c3ccc(O)c4[nH]c(=O)ccc34)c3c(c21)CCC3)[C@H]1CC[C@H](OC(=O)C(O)(c2cccs2)c2cccs2)CC1` [listing 2 of 3 here], the “TGA weight loss (%, 150° C)” value in series [1] (~81% RH (saturated potassium bromide solution)/room temperature) is on record as 10.4%; in series [1] (~94% RH (saturated potassium nitrate solution)/room temperature) it was 9.9%. In series [2] (25° C./80% RH), this compound showed a moisture adsorption of 7.84%. Moreover, in series [2] (XRPD before and after DVS test), the “crystal form after the DVS test (XRPD)” value is “remained unchanged”.

As for `CN(CCCn1nnc2cc(CNC[C@H](O)c3ccc(O)c4[nH]c(=O)ccc34)c3c(c21)CCC3)[C@H]1CC[C@H](OC(=O)C(O)(c2cccs2)c2cccs2)CC1` [listing 3 of 3 here], the “crystal form after placement (XRPD)” value in series [3] was “remained unchanged”.

The record behind these values is patent publication US20250230148A1, “CRYSTAL OF FUSED TRICYCLIC DERIVATIVE OR PHARMACEUTICALLY ACCEPTABLE SALT THEREOF” (CHIA TAI TIANQING PHARMACEUTICAL GROUP CO., LTD., priority 2022, published 2025).
